Assay results from PubChem BioAssay (NCI).
Several values for one entry are separate records, joined by “and”; a condition that tells them apart may be missing. Equal entries are not always repeated.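 Test compounds were applied to cells in 96-well plates for 48 hours at 5 doses. GI50 = concentration required for 50% inhibition of growth. TGI denotes the concentration required for complete inhibition of growth.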

Tests used:
Test in all cases: DTP human tumour cell line panel, 48 h
[1] = tested on: ACHN renal
[2] = tested on: NCI/ADR-RES ovarian
[3] = tested on: TK-10 renal
[4] = tested on: SNB-75 CNS
[5] = tested on: NCI-H226 lung
[6] = tested on: K-562 leukemia
[7] = tested on: UACC-62 melanoma
[8] = tested on: LOX IMVI melanoma
[9] = tested on: HCC-2998 colon
[10] = tested on: OVCAR-8 ovarian

| SMILES | GI50 [1] | TGI [1] | GI50 [2] | TGI [2] [µM] | GI50 [3] | TGI [3] | GI50 [4] | TGI [4] | GI50 [5] [µM] | TGI [5] | GI50 [6] | TGI [6] [µM] | GI50 [7] | TGI [7] | GI50 [8] | TGI [8] [µM] | GI50 [9] | TGI [9] [µM] | GI50 [10] | TGI [10] |
| --- | --- | --- | --- | --- | --- | --- | --- | --- | --- | --- | --- | --- | --- | --- | --- | --- | --- | --- | --- | --- |
| COC(=O)C(C)NP(=O)(OCc1cccc(Cn2cnc3c(N)ncnc32)c1)Oc1ccccc1 (configuration not stated) | > 100 µM | > 100 µM | > 100 µM | > 100 | > 100 µM | > 100 µM | > 100 µM | > 100 µM | > 100 | > 100 µM | > 100 µM | > 100 | 56.3 µM | > 100 µM | 48.9 µM | > 100 | 10.9 µM | 53.7 | > 100 µM | > 100 µM |
| C/C=C(/CCC1NCCc2c1[nH]c1ccccc21)[Si](C)(C)C (configuration not stated) |  | > 100 µM and 21.5 µM |  |  | > 100 µM and 12.2 µM | > 100 µM and 24.8 µM |  | > 100 µM and 19.9 µM |  | > 100 µM and 31.4 µM |  | > 100 |  | > 100 µM and 26.5 µM |  | 15.2 |  |  |  | > 100 µM and 24.4 µM |
| O=c1c(-c2ccccc2)c(SCCCN2CCCCC2)n(-c2ccccc2)c(=S)n1-c1ccccc1 |  | 34.4 µM |  | 43.8 |  | 37.3 µM |  | 29.5 µM |  | 30.4 µM |  | 34.1 |  | 30.1 µM |  | 32.4 |  | 16.8 |  | 37.9 µM |
| O=c1[nH]c2ccccc2c2oc3ccccc3c12 |  | > 100 µM |  | > 100 |  | > 100 µM |  | 32.6 µM |  | > 100 µM |  | > 100 |  | > 100 µM |  |  |  | > 100 |  | > 100 µM |
| COC(=O)C1=C(O)C(C(=O)OC)[C@@]2(O)[C@@H](C(=O)OC)[C@H](C)C[C@@H]1[C@@H]2C(=O)OC (some centres not stated) |  | > 100 µM |  |  |  | > 100 µM |  | 78.1 µM |  | > 100 µM |  | > 100 |  | > 100 µM |  | > 100 |  | 30.9 |  |  |
| NCCCCNOCCCN |  | > 100 µM |  | > 100 |  | > 100 µM |  | > 100 µM |  | > 100 µM |  | > 100 |  | > 100 µM |  | > 100 |  | > 100 |  | > 100 µM |
| CC(C)(CCCCC(C)(C)NC1=NCCO1)NC1=NCCO1 |  | > 10 µM |  | > 10 |  | > 10 µM |  | > 10 µM |  | > 10 µM |  | > 10 |  | > 10 µM |  | > 10 |  | > 10 |  | > 10 µM |
| CC(C)(C)OC(=O)CC(NC(=O)OCc1ccccc1)NC(=O)OC(C)(C)C (configuration not stated) | 51.5 µg/mL |  | 33.5 µg/mL |  |  |  | 20.8 µg/mL |  |  |  | 38.2 µg/mL |  | 57.2 µg/mL |  | 71.2 µg/mL |  | 94.4 µg/mL |  | 57.5 µg/mL |  |
| C=CCN1C(=O)NC(=O)/C(=C/c2c3ccccc3cc3ccccc23)C1=O |  |  |  |  |  | 37.4 µM |  | 45 µM |  | 45.9 µM |  | 66.5 |  | 50.4 µM |  | 75.4 |  | 28.4 |  | 55 µM |
